Patent publication EP0414569A2, “Three-liquid-phase epoxidation of perfluoroolefins” (E.I. DU PONT DE NEMOURS AND COMPANY, priority 1989, dated 1991)

How the values were obtained:
[1] = Miscibility of toluene with HFP and HFPO; format: physicochemical; conditions: in toluene; miscibility sharply affected by temperature
From the text: Certain organic liquids show more affinity for perfluoroolefins than for their epoxides and they are desired for use in this invention. […] With mixtures of HFP and HFPO as would exist in a continuous back-mixed reactor, immiscibility exists at higher temperatures. It is believed that organic liquids which are substantially halogenated will not form two phases with HFP or HFPO. […] Therefore, a hydrogen-containing organic liquid is used.

[2] = Determination of the HFP-HFPO partition coefficient (alpha) in an organic liquid: HFP/HFPO gas mixture passed through the liquid, dissolved gases measured by gas chromatography; format: physicochemical; conditions: HFP-HFPO partition coefficient of the organic liquid, atmospheric pressure
Experimental: A simple method of determining this preference (using HFP over HFPO as an example of other olefins and their epoxides covered by this invention) is to determine the partition coefficient for the system HFPO-HFP-organic liquid. Determination of the partition coefficient (alpha) is carried out by passing a mixture of HFP and HFPO gas through the organic liquid at atmospheric pressure while agitating vigorously and maintaining a constant temperature. The gas is passed through the liquid long enough to ensure that the liquid is completely saturated with the gases and to let the gas phase composition equilibrate to the feed composition. The organic liquid phase is then sampled and gas chromatography is used to determine the amount of the gaseous components which had been dissolved in the liquid phase. The partition coefficient, alpha, is then calculated by the following equation: [formula]
Using this method, partition coefficients were determined for a number of organic liquids at -15°C and 0°C, with the results shown below: […]

Row | Compound | concentration at which toluene becomes immiscible [1] | Alpha at 0°C [2] | Alpha at -15°C [2]
1 | FC(F)=C(F)C(F)(F)F [HFP, hexafluoropropylene] | 20-40 wt % |  | 
2 | FC(F)(F)C(F)(F)C(F)(F)C(F)(F)C1(F)OC(F)(F)C(F)(F)C1(F)F (centres unmarked) [FC-75, Perfluoro(butyl tetrahydrofurane)] |  | 1.0 | 1.0
3 | Cc1cc(C)cc(C)c1 [mesitylene] |  | 2.2 | 2.3
4 | COc1ccccc1 [anisole] |  | 2.5 | 2.4
5 | CCCCCCCCCC [n-decane] |  | 1.3 | 1.6
6 | FC(F)(F)C1(F)OC1(F)F (centres unmarked) [HFPO, hexafluoropropylene epoxide] | 3-6 wt % |  | 
7 | dichlorobenzene |  | 2.1 | 2.0
8 | Clc1ccccc1 [chlorobenzene] |  | 2.1 | 1.9
